Data: PubChem BioAssay (NCI)
Several values for one entry are separate records, joined by “and”; a condition that tells them apart may be missing. Identical values can stand only once.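 Exposure lasted 48 hours, with cells grown in 96-well plates and compounds tested at five concentrations. The concentration for 50% growth inhibition is given as GI50. At the TGI there is no net growth.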

How the values were obtained:
Assay in all cases: NCI anticancer screen, dose series, 48 h
OVCAR-4 ovarian = system: OVCAR-4 ovarian
SNB-19 CNS = system: SNB-19 CNS
HCT-116 colon = system: HCT-116 colon
LOX IMVI melanoma = system: LOX IMVI melanoma
SK-MEL-5 melanoma = system: SK-MEL-5 melanoma
SN12C renal = system: SN12C renal
HT29 colon = system: HT29 colon
SF-295 CNS = system: SF-295 CNS
M14 melanoma = system: M14 melanoma
SK-MEL-2 melanoma = system: SK-MEL-2 melanoma

Structure (SMILES)	TGI (OVCAR-4 ovarian)	TGI (SNB-19 CNS)	TGI (HCT-116 colon)	TGI (LOX IMVI melanoma)	TGI (SK-MEL-5 melanoma)	TGI (SN12C renal)	TGI (HT29 colon)	TGI (SF-295 CNS)	TGI (M14 melanoma)	TGI (SK-MEL-2 melanoma)	GI50 (OVCAR-4 ovarian)	GI50 (SNB-19 CNS)	GI50 (HCT-116 colon)	GI50 (SK-MEL-2 melanoma)	GI50 (LOX IMVI melanoma)	GI50 (SK-MEL-5 melanoma)	GI50 (SN12C renal)	GI50 (HT29 colon)	GI50 (SF-295 CNS)	GI50 (M14 melanoma)
CN1C(=O)c2cccc3cc([N+](=O)[O-])cc(c23)C1=O	> 10 µM	> 10 µM	> 10 µM	> 10 µM	> 10 µM	> 10 µM	> 10 µM	> 10 µM	> 10 µM	–	–	–	–	–	–	–	–	–	–	–
CC1(C)SCc2nc3ncccc3n21	> 100 µM	–	–	> 100 µM	> 100 µM	> 100 µM	> 100 µM	> 100 µM	> 100 µM	> 100 µM	–	–	–	–	–	–	–	–	–	–
O=C(N/N=C/c1ccc(Cl)cc1)c1ccc(C(F)(F)F)nc1Nc1cccc(C(F)(F)F)c1	15.2 µM	13 µM	10.9 µM	8 µM	3.55 µM	10.6 µM	11.7 µM	4.62 µM	10 µM	7.91 µM	0.736 µM	2.61 µM	2.6 µM	2.58 µM	1.3 µM	1.46 µM	1.78 µM	1.44 µM	1.17 µM	2.54 µM
CCC[CH2][Sn]1([CH2]CCC)[O]CC(CN2CCCC2)[O]1 (stereo not drawn)	28.5 µM	44.3 µM	30.6 µM	26.8 µM	33.4 µM	31 µM	30.7 µM	28.2 µM	32.5 µM	27.1 µM	14.4 µM	18.7 µM	16.9 µM	13.8 µM	12.3 µM	17.9 µM	16.7 µM	11.1 µM	14.5 µM	16.9 µM
COc1cc2c(c(OC)c1OC)-c1ccc(OC)c(=O)cc1[C@@H](NC(=O)c1ccccc1)CC2	30 µM and > 100 µM	30 µM and 46.3 µM	–	30 µM and 53.4 µM	–	30 µM and > 81.5 µM	–	–	8.46 µM	–	28.1 µM and 13.4 µM	< 0.003 µM and 0.0157 µM	< 0.003 µM	< 0.003 µM	0.0105 µM	0.00569 µM	< 0.003 µM	0.00658 µM	0.00623 µM	–
COC1=C(C)C(=O)c2c(c(COC(N)=O)c3n2CC2C3N2C)C1=O (stereo not drawn)	0.244 µM	0.256 µM	0.0641 µM	0.053 µM	0.15 µM	0.221 µM	0.314 µM	0.0261 µM	0.0641 µM	0.109 µM	–	–	–	–	–	–	–	–	–	–
COc1ccccc1CNCCCN1C(=O)c2ccc3c4c(ccc(c24)C1=O)C(=O)N(CCCOCCCCOCCCN)C3=O	0.54 µM	4.87 µM	–	3.01 µM	1.18 µM	2.78 µM	1.29 µM	3.43 µM	4.82 µM	4.04 µM	0.193 µM	1.71 µM	–	1.83 µM	1.26 µM	0.288 µM	1.24 µM	0.402 µM	1.42 µM	1.42 µM
Cc1cn(C2CC(O)C(CO)O2)c(=O)n2nnnc12 (stereo not drawn)	> 100 µM	> 100 µM	> 100 µM	> 100 µM	> 100 µM	–	> 100 µM	> 100 µM	> 100 µM	> 100 µM	–	–	–	–	–	–	–	–	–	–
